Source: US20040171566A1, “Antisense modulation of p38 mitogen activated protein kinase expression” (priority 1999, published 2004)
In the oligonucleotide strings, read from the 5' end, every base follows the letter of its sugar. An asterisk marks phosphorothioate; unmarked linkages are phosphodiester. Other units and linkages are bracketed, terminal groups are in braces. A string of capitals states the bases alone. e = 2'-O-(2-methoxyethyl) (MOE); [5mC] = 5-methylcytosine; d = 2'-deoxy (DNA)

Legend:
mouse p38α mRNA [1] = experiment: Inhibition of mouse p38α mRNA expression in bEND.3 cells, Northern blot; format: cell-based
Description: (§1) bEND.3, a mouse endothelial cell line (gift of Dr. Werner Risau; see Montesano et al., Cell, 1990, 62, 435, and Stepkowski et al., J. Immunol., 1994, 153, 5336) were grown in high-glucose DMEM (Life Technologies, Gaithersburg, Md.) medium containing 10% fetal bovine serum (FBS) and 1% Penicillin/Streptomycinin. Cells were plated at approximately 2×10^5 cells per 100 mm dish. Within 48 hours of plating, the cells were washed with phosphate-buffered saline (Life Technologies). Then, Opti-MEM7 medium containing 3 μg/mL LIPOFECTIN^7 and an appropriate amount of oligonucleotide were added to the cells. As a control, cells were treated with LIPOFECTIN^7 without oligonucleotide under the same conditions and for the same times as the oligonucleotide-treated samples.
(§2) After 4 hours at 37° C., the medium was replaced with high glucose DMEM medium containing 10% FBS and 1% Penicillin/Streptomycinin. The cells were typically allowed to recover overnight (about 18 to 24 hours) before RNA and/or protein assays were performed as described in Example 2. The p38α, p38β and G3PDH probes used were identical to those described in Example 2.
(§3) Rat p38α antisense oligonucleotides were screened in bEND.3 cells for inhibition of p38α and p38β mRNA expression. The concentration of oligonucleotide used was 100 nM. Oligonucleotides 21844 (SEQ ID NO. 47), 21845 (SEQ ID NO. 48), 21872 (SEQ ID NO. 51), 21873 (SEQ ID NO. 52), 21875 (SEQ ID NO. 54), and 21876 (SEQ ID NO.
(§4) Mouse p38β antisense sequences were screened in bEND.3 cells as described in Example 4.

mouse p38β mRNA = experiment: Inhibition of mouse p38β mRNA expression in bEND.3 cells, Northern blot; format: cell-based
Description: as §1, §2, §3, §4

rat p38α mRNA [2] = experiment: Inhibition of rat p38α mRNA expression in A-10 cells, Northern blot; format: cell-based; conditions: Rat A-10 cells, 200 nM oligonucleotide, 24 hours
Description: Rat p38α antisense oligonucleotides were screened in Rat A-10 cells. A-10 cells (American Type Culture Collection, Manassas, Va.) were grown in high-glucose DMEM (Life Technologies, Gaithersburg, Md.) medium containing 10% fetal calf serum (FCS). Cells were treated with oligonucleotide as described in Example 2. Oligonucleotide concentration was 200 nM. mRNA was isolated 24 hours after time zero and quantitated by Northern blot as described in Example 2.

mouse p38α mRNA [3] = experiment: Mouse p38α mRNA levels in bEND.3 cells, quantitative real-time PCR; format: cell-based; design: % Inhib. mouse p38α: concentration or dose not given beside the values; conditions: bEND.3 cells, mRNA by quantitative real-time PCR, average of two experiments
Outline: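 Mouse bEND.3 cells, antisense oligonucleotide-treated; p38α mRNA measured by one-step real-time RT-PCR (RT 30 min at 48 °C, then 40 cycles) with a FAM/TAMRA probe. Levels normalized to GAPDH or RiboGreen total RNA, and percent inhibition derived from standard curves of untreated-control mRNA.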

rat p38α mRNA [4] = experiment: Rat p38α mRNA levels in NR-8383 cells, quantitative real-time PCR; format: cell-based; conditions: 300 nM oligonucleotide with FuGENE 6, 24 hours, mRNA by quantitative real-time PCR, average of two experiments
human p38α mRNA = experiment: Human p38α mRNA expression in T-24 cells
human p38β mRNA = experiment: Human p38β mRNA expression in T-24 cells
[5] = 100 nM rat p38α antisense oligonucleotide
[6] = initial screen of human p38α oligonucleotides
[7] = mouse p38β antisense oligonucleotides, screened as in Example 4
[8] = initial screen of human p38β oligonucleotides

ToGoCoAoCsCsAsCsAsAsGsCsAsCsCsToGoGoAoG (antisense eTeGe[5mC]eAe[5mC]*d[5mC]*dA*d[5mC]*dA*dA*dG*d[5mC]*dA*d[5mC]*d[5mC]*eTeGeGeAeG) [ISIS 21878]
% p38α mRNA INHIBITION (mouse p38α mRNA [1]; [5]): 25%
% p38β mRNA Inhibition (mouse p38β mRNA; [5]): 10%
% p38α mRNA EXPRESSION (rat p38α mRNA [2]): 35%

GoGoToAoAsGsCsTsTsCsTsGsAsCsAsCoToToCoA (antisense eGeGeTeAeA*dG*d[5mC]*dT*dT*d[5mC]*dT*dG*dA*d[5mC]*dA*e[5mC]eTeTe[5mC]eA) [ISIS 21845]
% p38α mRNA EXPRESSION (rat p38α mRNA [2]): 25%

ToCoToToCsCsAsAsTsGsGsAsGsAsAsAoCoToGoG (antisense eTe[5mC]eTeTe[5mC]*d[5mC]*dA*dA*dT*dG*dG*dA*dG*dA*dA*eAe[5mC]eTeGeG) [ISIS 21881]
% p38α mRNA EXPRESSION (rat p38α mRNA [2]): 31%

TCCAACAGACCAATCACATT (phosphorothioate gapmer, further chemistry not given here) [ISIS 100864]
% Inhib. mouse p38α (mouse p38α mRNA [3]): 83%
% Inhib. rat p38α (rat p38α mRNA [4]): 57%
% P38α mRNA EXPRESSION (human p38α mRNA; [6]): 66%
% P38β mRNA EXPRESSION (human p38β mRNA; [6]): 70%

GoGoCoToAsCsCsAsTsGsAsGsTsGsAsGoAoAoGoA (antisense eGeGe[5mC]eTeA*d[5mC]*d[5mC]*dA*dT*dG*dA*dG*dT*dG*dA*eGeAeAeGeA) [ISIS 21879]
% p38α mRNA EXPRESSION (rat p38α mRNA [2]): 11%

CoCoCoToGsCsAsGsCsCsGsCsTsGsCsGoGoCoAoC (antisense e[5mC]e[5mC]e[5mC]eTeG*d[5mC]*dA*dG*d[5mC]*d[5mC]*dG*d[5mC]*dT*dG*d[5mC]*eGeGe[5mC]eAe[5mC]) [ISIS 100802]
% p38β mRNA Inhibition (mouse p38β mRNA; [7]): 35%
% p38α mRNA EXPRESSION (human p38α mRNA; [8]): 78%
% p38β mRNA Expression (human p38β mRNA; [8]): 47%

AoToGoGoAsTsGsTsGsGsCsCsGsGsCsGoToGoAoA (antisense eAeTeGeGeA*dT*dG*dT*dG*dG*d[5mC]*d[5mC]*dG*dG*d[5mC]*eGeTeGeAeA) [ISIS 100806]
% p38α mRNA INHIBITION (mouse p38α mRNA [1]; [7]): 3%
% p38β mRNA Inhibition (mouse p38β mRNA; [7]): 22%

GoCoAoGoAsCsTsGsAsGsCsCsGsTsAsGoGoCoGoC (antisense eGe[5mC]eAeGeA*d[5mC]*dT*dG*dA*dG*d[5mC]*d[5mC]*dG*dT*dA*eGeGe[5mC]eGe[5mC]) [ISIS 100803]
% p38α mRNA INHIBITION (mouse p38α mRNA [1]; [7]): 18%
